Assays:
[1] = tested on: cancer cells (DLD-1, AsPc-1, B16-BL6); experiment: Cytotoxicity assay (WST-1); format: cell-based; conditions: 5 μM, 48 hours
Procedure: (§1) To verify the cytotoxicity of (S)-(−)-benproperine, prepared in Example 1, DLD-1 cells (ATCC-CCL-221), a human colorectal cancer cell line, AsPc-1′ cells (ATCC-CRL-1682), a pancreatic cancer cell line, B16-BL6 cells (ATCC-CRL-6475), a melanoma cell line, and normal cells of MCF10A (ATCC-CRL-10317) were cultured in an RPM medium containing 10% fetal bovine serum (FBS) while maintaining a temperature at 37° C. and 5% CO2, and the cells were then detached from the medium using 0.05% trypsin-EDTA. Each well of a 96-well plate including the medium containing 10% FBS was inoculated with 410^3 cells, calculated with a hemocytometer, and the cells were cultured in an incubator containing 5% CO2 at 37° C.
(§2) After 24 hours, the medium of each well was replaced with a new medium containing a control group (0.1% DMSO) and 5 μM of benproperine, prepared in either of Example 1 or Comparative Example 1. The cells in the new media were then cultured in an incubator containing 5% CO2 at 37° C. for 48 hours. Each well was then charged with 10 μL of WST-1 (Roche), culturing was continued for 2 hours, and absorbance was measured at 450 nm by ELISA Reader (Bio-Rad).

normal cells of MCF10A = experiment: Cytotoxicity assay (WST-1); format: cell-based; conditions: 5 μM, 48 hours
Procedure: as §1, §2

[2] = tested on: DLD-1 cells, PRL-3 over-expressed colorectal cancer cell line; experiment: Transwell cell migration assay; format: cell-based, human; conditions: for inhibition at 0.5 µM: DLD-1, 0.5 μM (FIG. 3b); for inhibition at 0.5 µM / inhibition at 5 µM: compared to DMSO-treated control; for inhibition at 5 µM: DLD-1, 5 μM (FIG. 3a)
Procedure: (§3) To analyze inhibitory activity against the migration and invasion of (S)-(−)-benproperine cancer cells, a cell migration and invasion assay was caned out using DLD-1 cells (ATCC-CCL-221), a PRL-3 over-expressed colorectal cancer cell line, using a transwell as described below.
(§4) First, DLD-1 cells (ATCC-CCL-221) were allowed to grow to about 90% in a culturing plate containing an RPMI medium, then removed from the medium and washed with PBS. The washed cells were treated with trypsin-EDTA and cultured in a CO2 incubator at 37° C. for […] to detach the cells. Then an RPMI medium containing 10% FBS was added thereto, and the cells were collected in a Falcon tube and centrifuged to remove the medium. The thus-obtained cells were charged with an FBS-free RPMI medium and centrifuged to remove the medium, and these step were repeated twice. The thus-obtained cells were charged with an FBS-free RPMI medium and then suspended to measure the number of cells using a hemocytometer.
(§5) Thereafter, the transwell was placed on top of a 24-well plate and charged with cells of 8×10^4 cell/200 The transwell was charged with 500 μL of an FBS-free RPMI medium containing the (S)-(−)-benproperine, prepared in Example 1, through the gap, and cultured in a CO2 incubator at 37° C. for 12 hours to 16 hours. After culturing, the transwell was turned upside down on a hand towel to remove the medium, then each well of the 24-well plate was charged with 500 μL of crystal violet (5 mg/mL in 20% MeOH). The transwell was placed back on top of the 24-well plate and incubated in a CO2 incubator for 30 minutes. The stained transwell was washed with PBS and turned upside down on a hand towel to let the remaining solution infiltrate into the hand towel. A region where the cells had not moved was labeled as the top of a film by placing a cover slip on top of the film, and the cells that had not moved were wiped off with a cotton swab. A small amount of nail polish was applied to the edge of the cover slip, and a slide glass was placed on top to fix the cover slip. The thus-prepared sample was photographed using an inverted microscope (TE 300, Nikon, Japan) with a digital camera installed, and the number of migrated cells was calculated.
Subsequently, cell migration inhibition was calculated via Mathematical Formula 1 shown below.
(§6) According to the Mathematical Formula 1 above, “the number of migrated cells in sample-treated group” refers to a number of migrated cells measured after treating DLD-1 with (S)-(−)-benproperine (S-Benp) prepared in Example 1, (R)-(+)-benproperine (R-Benp) prepared in Comparative Example 1, or a mixed racemate having a 1:1 weight ratio of (S)-(−)-benproperine to (R)-(+)-benproperine, and “the number of migrated cells in control group” refers to a number of migrated cells measured after treating DLD-1 with 1% dimethyl sulfoxide (DMSO) alone, instead of benproperine.

MCF10A cells = experiment: Transwell cell migration assay, normal cells; format: cell-based; conditions: 10 μM (FIG. 4)
[3] = tested on: DLD-1 cells, PRL-3 over-expressed colorectal cancer cell line; experiment: Transwell cell invasion assay; format: cell-based; conditions: Homo sapiens; for inhibition at 1 µM: DLD-1, 1 μM (FIG. 5b); for inhibition at 1 µM / inhibition at 5 µM: compared to DMSO-treated control; for inhibition at 2 µM: DLD-1, 2 μM (FIG. 5b); for inhibition at 5 µM: DLD-1, 5 μM (FIG. 5a)
Procedure: as §3, §4, §5, §6

[4] = Acute toxicity experiment of oral administration on rats; conditions: SD, in vivo, 1000 mg/kg; rat, oral; read-out: minimum lethal oral dose (LD50)
Procedure: (§7) 6-week-old specific pathogen free SD type rats were divided into groups, where each group contains two rats. The (S)-(−)-benproperine, prepared in Example 1, was dissolved in water for injection, and orally administered to each rat once at a volume of 1000 mg/kg.

SD type rats = experiment: as above; conditions: rat, in vivo, po, 1000 mg/kg
Procedure: as §7

| SMILES | cytotoxicity [1] | cytotoxicity (normal cells of MCF10A) | inhibitory activity against cell migration relative to the racemate ([2]; DLD-1, 52% at 1 μM vs racemate 53% at 2 μM) | inhibition at 0.5 µM ([2]; Homo sapiens) [%] | inhibition at 1 µM ([2]; Homo sapiens, DLD-1, 1 μM (FIG. 3b)) [%] | inhibition at 5 µM ([2]; Homo sapiens) [%] | inhibition of migration of normal cells (MCF10A cells) | inhibition at 1 µM [3] [%] | inhibition at 2 µM [3] [%] | inhibition at 5 µM [3] [%] | highest tested oral dose (no deaths) [4] [mg/kg] | animal death (SD type rats) | clinical symptoms (SD type rats) | toxicity in weight fluctuation, hematological and blood biochemical examinations, post-mortem reports (SD type rats) | inhibition at 2 µM ([2]; Homo sapiens, DLD-1, 2 μM (FIG. 3b)) [%] |
| --- | --- | --- | --- | --- | --- | --- | --- | --- | --- | --- | --- | --- | --- | --- | --- |
| C[C@@H](COc1ccccc1Cc1ccccc1)N1CCCCC1 [(S)-(−)-benproperine] | did not exhibit the cytotoxicity | did not exhibit the cytotoxicity | twice as much inhibitory activity against the cell migration as the racemate | 32 | 52 | 89 | did not inhibit the migration | 36 | 57 | 90 | 1000 | none died | showed noteworthy clinical symptoms | nor showed any toxicity | – |
| CC(COc1ccccc1Cc1ccccc1)N1CCCCC1 (racemic) [racemate, 1-[1-(2-benzylphenoxy)propan-2-yl]piperidine, reference compound] | – | – | – | 3 | – | 71 | – | 21 | 36 | 73 | – | – | – | – | 53 |
